± gives the standard deviation of the averaged measurements.
System: HL-60
Test: cell viability (% survival relative to DMSO control); higher = less cytotoxic
Conditions: 0.001 µM; 72 h; co-treatment: AZD3965 100 nM
In short: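 A rescreen of the full library used HL-60 cells in RPMI 1640 with 10% FBS on 384-well plates, run in duplicate at five tenfold concentrations (1–10,000 nM). Each screen included DMSO or 100 nM of one of three metabolic inhibitors and ran 72 h at 37 °C, 5% CO2. CellTiter-Glo viability was scaled between DMSO and 10 μM proteasome-inhibitor wells. Any area under the curve comes from four-parameter log-logistic fits with drc and PharmacoGx.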

Point of comparison: `O=C1O[C@H]([C@@H](O)CO)C(O)=C1O` [Vitamin C (ascorbate)], cell viability 89.82 ± 0.29%. Against it:
- O=C(C1CC1)N1CC[C@@H](C=C2NNC(=O)N2c2ccc(-c3ccc4occc4c3)cc2)C1 — higher, 101 ± 1.3%
- C[C@H](NC(=O)c1sccc1OCc1ccc(Cl)cc1)c1ccccc1 — within error, 70.8 ± 40%
- O=C(O)C1=CC(=C(c2ccc(O)c(C(=O)O)c2)c2ccc(O)c(C(=O)O)c2)C=CC1=O [Aurintricarboxylic acid] — higher, 95.9 ± 1.1%
- COC(=O)[C@]12CCC(C)(C)C[C@H]1[C@H]1C(=O)C=C3[C@@]4(C)C=C(C#N)C(=O)C(C)(C)[C@@H]4CC[C@@]3(C)[C@]1(C)CC2 [Bardoxolone methyl] — higher, 101 ± 1.8%
- Cc1c(-c2ccc(-c3ccccc3F)cc2)nc2ccc(F)cc2c1C(=O)O [Brequinar] — within error, 98.8 ± 10%
- Nc1nc(Cl)nc2c1ncn2[C@H]1C[C@H](O)[C@@H](CO)O1 [Cladribine] — higher, 100 ± 2.3%
- O=C1c2cc([N+](=O)[O-])ccc2-n2c1nc1ccccc1c2=O [GNF-Pf-3777] — higher, 103 ± 4.7%
- C=C(C)[C@H]1Cc2c(ccc3c2O[C@@H]2COc4cc(OC)c(OC)cc4[C@@H]2C3=O)O1 [Rotenone] — higher, 96.5 ± 2.8%
- Oc1ccc(Nc2nc(-c3ccc(Cl)cc3)cs2)cc1 [SKI II] — higher, 101.4 ± 0.73%
- Cc1cn([C@H]2C[C@H](O)[C@@H](COP(=O)(O)OP(=O)(O)O)O2)c(=O)[nH]c1=O [Thymidine diphosphate] — higher, 97.44 ± 0.59%
- CN(C)c1cc(NC(=O)CNC(C)(C)C)c(O)c2c1C[C@H]1C[C@H]3[C@H](N(C)C)C(=O)C(C(N)=O)C(=O)[C@@]3(O)C(=O)C1C2=O (some centres not stated) [Tigecycline] — higher, 103 ± 5.2%
- COc1ccc2c(C(=S)N(C)CC(=O)O)cccc2c1C(F)(F)F [Tolrestat] — higher, 97.3 ± 1.8%
- CCC(=O)N1CCN(c2ccc(-n3c(=O)ccc4cnc5ccc(-c6cnc7ccccc7c6)cc5c43)cc2C(F)(F)F)CC1 [Torin1] — higher, 105 ± 6.4%
- NC(=O)c1cccc(-c2cccc(OC(=O)NC3CCCCC3)c2)c1 [URB-597] — higher, 101 ± 2.7%

Same assay, conditions: 0.001 µM; 72 h; co-treatment: DMSO vehicle

Point of comparison: `COC(=O)[C@]12CCC(C)(C)C[C@H]1[C@H]1C(=O)C=C3[C@@]4(C)C=C(C#N)C(=O)C(C)(C)[C@@H]4CC[C@@]3(C)[C@]1(C)CC2` [Bardoxolone methyl], cell viability 102.3 ± 0.12%. Against it:
- O=C(C1CC1)N1CC[C@@H](C=C2NNC(=O)N2c2ccc(-c3ccc4occc4c3)cc2)C1 — within error, 101 ± 2.7%
- C[C@H](NC(=O)c1sccc1OCc1ccc(Cl)cc1)c1ccccc1 — lower, 99.5 ± 2%
- O=C(O)C1=CC(=C(c2ccc(O)c(C(=O)O)c2)c2ccc(O)c(C(=O)O)c2)C=CC1=O [Aurintricarboxylic acid] — within error, 101 ± 3.1%
- Cc1c(-c2ccc(-c3ccccc3F)cc2)nc2ccc(F)cc2c1C(=O)O [Brequinar] — within error, 99.9 ± 7.8%
- Nc1nc(Cl)nc2c1ncn2[C@H]1C[C@H](O)[C@@H](CO)O1 [Cladribine] — within error, 101 ± 3%
- O=C1c2cc([N+](=O)[O-])ccc2-n2c1nc1ccccc1c2=O [GNF-Pf-3777] — lower, 94.3 ± 0.29%
- C=C(C)[C@H]1Cc2c(ccc3c2O[C@@H]2COc4cc(OC)c(OC)cc4[C@@H]2C3=O)O1 [Rotenone] — within error, 97.7 ± 17%
- Oc1ccc(Nc2nc(-c3ccc(Cl)cc3)cs2)cc1 [SKI II] — the same, 102 ± 5.4%
- Cc1cn([C@H]2C[C@H](O)[C@@H](COP(=O)(O)OP(=O)(O)O)O2)c(=O)[nH]c1=O [Thymidine diphosphate] — within error, 101 ± 1.5%
- CN(C)c1cc(NC(=O)CNC(C)(C)C)c(O)c2c1C[C@H]1C[C@H]3[C@H](N(C)C)C(=O)C(C(N)=O)C(=O)[C@@]3(O)C(=O)C1C2=O (some centres not stated) [Tigecycline] — the same, 102 ± 6.9%
- COc1ccc2c(C(=S)N(C)CC(=O)O)cccc2c1C(F)(F)F [Tolrestat] — lower, 96 ± 0.68%
- CCC(=O)N1CCN(c2ccc(-n3c(=O)ccc4cnc5ccc(-c6cnc7ccccc7c6)cc5c43)cc2C(F)(F)F)CC1 [Torin1] — within error, 97.9 ± 4.5%
- NC(=O)c1cccc(-c2cccc(OC(=O)NC3CCCCC3)c2)c1 [URB-597] — within error, 100 ± 5.5%
- O=C1O[C@H]([C@@H](O)CO)C(O)=C1O [Vitamin C (ascorbate)] — the same, 102 ± 1.1%

Same assay, conditions: 0.001 µM; 72 h; co-treatment: GSK2194069 100 nM

Point of comparison: `O=C1c2cc([N+](=O)[O-])ccc2-n2c1nc1ccccc1c2=O` [GNF-Pf-3777], cell viability 103 ± 6%. Against it:
- O=C(C1CC1)N1CC[C@@H](C=C2NNC(=O)N2c2ccc(-c3ccc4occc4c3)cc2)C1 — within error, 96.3 ± 1.3%
- C[C@H](NC(=O)c1sccc1OCc1ccc(Cl)cc1)c1ccccc1 — within error, 83.9 ± 16%
- O=C(O)C1=CC(=C(c2ccc(O)c(C(=O)O)c2)c2ccc(O)c(C(=O)O)c2)C=CC1=O [Aurintricarboxylic acid] — lower, 94.1 ± 0.2%
- COC(=O)[C@]12CCC(C)(C)C[C@H]1[C@H]1C(=O)C=C3[C@@]4(C)C=C(C#N)C(=O)C(C)(C)[C@@H]4CC[C@@]3(C)[C@]1(C)CC2 [Bardoxolone methyl] — within error, 100 ± 3.3%
- Cc1c(-c2ccc(-c3ccccc3F)cc2)nc2ccc(F)cc2c1C(=O)O [Brequinar] — within error, 96.8 ± 13%
- Nc1nc(Cl)nc2c1ncn2[C@H]1C[C@H](O)[C@@H](CO)O1 [Cladribine] — within error, 98.2 ± 5.8%
- C=C(C)[C@H]1Cc2c(ccc3c2O[C@@H]2COc4cc(OC)c(OC)cc4[C@@H]2C3=O)O1 [Rotenone] — within error, 86.2 ± 18%
- Oc1ccc(Nc2nc(-c3ccc(Cl)cc3)cs2)cc1 [SKI II] — within error, 99 ± 7.3%
- Cc1cn([C@H]2C[C@H](O)[C@@H](COP(=O)(O)OP(=O)(O)O)O2)c(=O)[nH]c1=O [Thymidine diphosphate] — within error, 104.9 ± 0.34%
- CN(C)c1cc(NC(=O)CNC(C)(C)C)c(O)c2c1C[C@H]1C[C@H]3[C@H](N(C)C)C(=O)C(C(N)=O)C(=O)[C@@]3(O)C(=O)C1C2=O (some centres not stated) [Tigecycline] — within error, 101.8 ± 0.14%
- COc1ccc2c(C(=S)N(C)CC(=O)O)cccc2c1C(F)(F)F [Tolrestat] — within error, 99 ± 1.9%
- CCC(=O)N1CCN(c2ccc(-n3c(=O)ccc4cnc5ccc(-c6cnc7ccccc7c6)cc5c43)cc2C(F)(F)F)CC1 [Torin1] — within error, 106 ± 8%
- NC(=O)c1cccc(-c2cccc(OC(=O)NC3CCCCC3)c2)c1 [URB-597] — the same, 103 ± 3.4%
- O=C1O[C@H]([C@@H](O)CO)C(O)=C1O [Vitamin C (ascorbate)] — within error, 88.6 ± 17%

Same assay, conditions: 0.001 µM; 72 h; co-treatment: pictilisib 100 nM

Point of comparison: `C[C@H](NC(=O)c1sccc1OCc1ccc(Cl)cc1)c1ccccc1`, cell viability 90.8 ± 4.3%. Against it:
- O=C(C1CC1)N1CC[C@@H](C=C2NNC(=O)N2c2ccc(-c3ccc4occc4c3)cc2)C1 — within error, 97.7 ± 10%
